Results on five molecules are retold here after PMC7178511, “Antimicrobial Activity and DNA/BSA Binding Affinity of Polynuclear Silver(I) Complexes with 1,2-Bis(4-pyridyl)ethane/ethene as Bridging Ligands” (Bioinorganic Chemistry and Applications, 2020).

Marks after values point to notes of the source that are not given here.

One series relates to C. glabrata ATCC 2001. Description: Broth microdilution MIC, C. glabrata. In kind it is cell-based, Candida glabrata. To be noted: C. glabrata ATCC 2001; RPMI 1640 with 2% glucose. The method, then:
(§1) Stock solutions of bpa, bpe, and silver(I) complexes 1–3 were prepared fresh in DMSO (50 mg/mL) and kept at 4°C prior to use. Susceptibility testing of Candida spp. (C. albicans ATCC 10231, C. krusei ATCC 6258, C. parapsilosis ATCC 22019, and C. glabrata ATCC 2001) was performed according to CLSI broth microdilution guidelines (Clinical and Laboratory Standards Institute, Reference Method for Broth Dilution Antifungal Susceptibility Testing of Yeasts—Third Edition: Approved Standard M27-A3; Clinical and Laboratory Standards Institute, Reference Method for Broth Dilution Antifungal Susceptibility Testing of Yeasts: Fourth Informational Supplement M27-S4), in RPMI 1640 medium (Roswell Park Memorial Institute medium) containing 2% glucose (w/v). The highest tested concentration was 500 μg/mL, and the inocula were 1^·\10^5 colony forming units (cfu)/mL.

For a further series, the system named is calf thymus DNA (ctDNA). As to the kind of experiment: Competitive EthBr-DNA fluorescence binding experiment. Particulars: Fluorescent titration, pH 7.4. The method, then:
The competitive DNA-silver(I) complex binding experiments were carried out in the buffer (pH 7.4) by maintaining [DNA]/[EthBr] = 5, while increasing the concentration of the complexes 1–3. Each sample solution was scanned in the wavelength range 525–800 nm with an excitation wavelength of 520 nm. The Stern-Volmer constants (Ksv), which represent a measure of the binding propensity of the complexes to DNA, were calculated using the following equation [29]:(2) F0/F=1+Kqτ0complex=1+Ksvcomplex, where F0 and F are the fluorescence intensities in the absence and presence of the complexes, respectively. Kq stands for bimolecular quenching constant and τ0 (10^−8 s) is the lifetime of the fluorophore in the absence of the quencher. The binding constants (KA) and apparent binding sites (n) can be calculated by using the following equation [28]:(3) logF0−F/F=log KA+n logcomplex, where KA stands for the binding constant of the silver(I) complex with ctDNA and n stands for the apparent number of binding sites.

Series [1] has as its system genomic DNA isolated from C. albicans ATCC 10231. Description: DNA interaction assay using gel electrophoresis. In kind it is binding, Candida albicans. Particulars: 40, 100 and 400 μM complex, 2 h, 30°C, Tris buffer pH 8.5. The protocol:
DNA interaction assay using gel electrophoresis has also been conducted according to the previously published procedure using high molecular weight (HMW) genomic DNA isolated from C. albicans ATCC 10231. Briefly, DNA (50 ng/μL final concentration) was incubated with 40, 100, and 400 μM final concentration of silver(I) complexes 1–3 in Tris buffer, pH 8.5 in 50 μL reaction volume. After 2 h incubation at 30°C, 10 μL aliquots were taken, mixed with loading dye, and loaded on agarose gel. Control contained an appropriate volume of DMSO. DNA samples were run, 500 ng per lane, on 0.8% agarose gel with ethidium bromide (EthBr) against O'GeneRuler™ 1 kb Plus DNA Ladder (Thermo Scientific™) at 60 V for 1 h. Gels were visualized and analyzed using the Gel Doc EZ system (Bio-Rad, Life Sciences, Hercules, USA), equipped with the Image Lab™ Software.

Series [2] deals with C. parapsilosis ATCC 22019. As to the kind of experiment: Broth microdilution MIC, C. parapsilosis. In kind it is cell-based, Candida parapsilosis. To be noted: C. parapsilosis ATCC 22019; RPMI 1640 with 2% glucose. The protocol:
as §1

The subject of series [3] is Salmonella enteritidis ATCC 13075. As to the kind of experiment: Broth microdilution MIC, S. enteritidis. Particulars: S. enteritidis ATCC 13075; Luria-Bertani broth, 24 h, 37°C. In kind it is cell-based. The method, then: (§2) Minimal inhibitory concentration (MIC) values against Pseudomonas aeruginosa PA01, Staphylococcus aureus ATCC 43300, Salmonella enteritidis ATCC 13075, Salmonella pullorum ATCC 13036, Escherichia coli NCTC 9001, Listeria monocytogenes NCTC 11994, and Enterococcus faecalis ATCC 29212 were determined in Luria-Bertani broth (10.0 g/L tryptone, 10.0 g/L NaCl, 5.0 g/L yeast extract, pH 7.2) in accordance with the standard broth microdilution assay for bacteria that grow aerobically, as recommended by the CLSI (Clinical and Laboratory Standards Institute, Methods for Dilution Antimicrobial Susceptibility Tests for Bacteria That Grow Aerobically; Approved Standard—Tenth Edition M07-A10. CLSI). The highest tested concentration was 500 μg/mL, and the inocula were 1^·10^6 cfu/mL.

Series [4] deals with Listeria monocytogenes NCTC 11994. As to the kind of experiment: Broth microdilution MIC, L. monocytogenes. It counts as cell-based. Particulars: L. monocytogenes NCTC 11994; Luria-Bertani broth, 24 h, 37°C. The protocol:
as §2

For series [5], the system named is Pseudomonas aeruginosa PAO1. Description: Broth microdilution MIC, P. aeruginosa. It counts as cell-based. Particulars: P. aeruginosa PAO1; Luria-Bertani broth, 24 h, 37°C. The protocol: as §2
The test system of the next series is C. albicans ATCC 10231. As to the kind of experiment: Broth microdilution MIC, C. albicans. It counts as cell-based, Candida albicans. Particulars: C. albicans ATCC 10231; RPMI 1640 with 2% glucose. The method, then: as §1
For series [6], the target named is T1, bovine serum albumin (BSA) (Bos taurus, UniProt P02769).
T1 construct: purchased Sigma-Aldrich
T1 sequence (P02769 25-607): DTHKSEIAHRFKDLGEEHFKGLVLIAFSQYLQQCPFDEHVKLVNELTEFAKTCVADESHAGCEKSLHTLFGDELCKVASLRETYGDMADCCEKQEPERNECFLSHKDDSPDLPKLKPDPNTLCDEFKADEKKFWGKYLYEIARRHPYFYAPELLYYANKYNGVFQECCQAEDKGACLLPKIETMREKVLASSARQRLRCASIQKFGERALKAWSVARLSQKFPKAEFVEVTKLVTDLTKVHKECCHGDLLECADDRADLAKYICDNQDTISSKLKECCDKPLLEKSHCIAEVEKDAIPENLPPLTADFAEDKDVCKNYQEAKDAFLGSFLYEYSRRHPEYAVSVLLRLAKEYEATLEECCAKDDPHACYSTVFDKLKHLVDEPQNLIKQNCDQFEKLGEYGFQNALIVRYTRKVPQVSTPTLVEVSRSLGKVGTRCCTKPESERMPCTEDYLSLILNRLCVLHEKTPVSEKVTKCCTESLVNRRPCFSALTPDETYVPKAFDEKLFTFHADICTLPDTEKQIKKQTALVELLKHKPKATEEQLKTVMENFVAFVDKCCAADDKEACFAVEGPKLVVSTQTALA
Description: BSA tryptophan fluorescence quenching. In kind it is binding. To be noted: BSA 13.1 μM, Tris buffer pH 7.4. The method, then: The protein binding study was performed by tryptophan fluorescence quenching experiments using BSA (13.1 μM) in Tris buffer solution (pH 7.4). The quenching of the emission intensity of tryptophan residues of BSA at 352 nm was monitored using the increasing concentration of the complexes 1–3 (up to 464.9 μM). Fluorescence spectra were recorded in the range 280–500 nm with an excitation wavelength of 275 nm. The corresponding binding constants of the complexes (KA) and apparent binding sites (n) were calculated as it was previously explained.

The test system of series [7] is human lung fibroblast cell line MRC-5. As to the kind of experiment: MTT assay on a human fibroblast cell line. In kind it is cell-based. Particulars: MRC-5, MTT, 48 h. The protocol: Antiproliferative activity was tested by 3-(4,5-dimethylthiazol-2-yl)-2,5-diphenyltetrazolium bromide (MTT) assay on a human lung fibroblast cell line (MRC-5; ATCC collection). Pregrown (24 h) cell monolayers were incubated in the media containing the tested compounds at concentrations ranging from 5 to 500 μg/mL and the cell viability was measured after 48 h. RPMI 1640 medium supplemented with 100 μg/mL streptomycin, 100 U/mL penicillin, and 10% (v/v) FBS (all from Sigma, Munich, Germany) was used for the cultivation of MRC-5 cell line. Cells were maintained as a monolayer (1^·10^4 cells per well) in RPMI 1640 and grown in a humidified atmosphere of 95% air and 5% CO2 at 37°C. The extent of MTT reduction was measured spectrophotometrically at 540 nm using Tecan Infinite 200 Pro multiplate reader (Tecan Group Ltd, Männedorf, Switzerland), and the cell survival was expressed as a percentage of the control (untreated cells). Cytotoxicity was expressed as the concentration of the compound inhibiting cell growth by 50% (IC50).

In another series the test system is C. krusei ATCC 6258. As to the kind of experiment: Broth microdilution MIC, C. krusei. It counts as cell-based, Candida krusei. Particulars: C. krusei ATCC 6258; RPMI 1640 with 2% glucose. The protocol:
as §1

Series [8] concerns Staphylococcus aureus ATCC 43300. Description: Broth microdilution MIC, S. aureus. In kind it is cell-based. Particulars: S. aureus ATCC 43300; Luria-Bertani broth, 24 h, 37°C. The protocol: as §2
Series [9] concerns Escherichia coli NCTC 9001. As to the kind of experiment: Broth microdilution MIC, E. coli. It counts as cell-based. Particulars: E. coli NCTC 9001; Luria-Bertani broth, 24 h, 37°C. The method, then: as §2
Series [10] deals with Enterococcus faecalis ATCC 29212. Description: Broth microdilution MIC, E. faecalis. It counts as cell-based. Particulars: E. faecalis ATCC 29212; Luria-Bertani broth, 24 h, 37°C. The protocol: as §2
Series [11] relates to Salmonella pullorum ATCC 13036. Description: Broth microdilution MIC, S. pullorum. It counts as cell-based. To be noted: S. pullorum ATCC 13036; Luria-Bertani broth, 24 h, 37°C. The protocol: as §2
Series [12] relates to C. albicans expressing red fluorescent protein. As to the kind of experiment: C. albicans filamentation study. In kind it is cell-based, Candida albicans. Particulars: MIC80 of complex, 6 h, 37°C, RPMI 1640 with 10% FBS. The method, then: The suspension of C. albicans expressing red fluorescent protein was prepared in RPMI 1640 medium with 10% (v/v) fetal bovine serum (FBS) to induce hyphae formation. The suspension was then treated with MIC80 concentrations of 1–3 at 37°C shaking. Cells treated with DMSO served as the control. After 6 h of incubation, the results were observed by a fluorescence microscope (Olympus BX51, Applied Imaging Corp., San Jose, CA, United States) under 20× magnification.

Series [13] relates to C. albicans infected zebrafish. More on the design: method as in PMID 30952084. To be noted: at MIC doses; cited from earlier work.
Another series deals with C. albicans. Further details: method as in PMID 30952084. To be noted: at MIC doses; cited from earlier work.

Regarding `O=[N+]([O-])[O-].[Ag+].c1cc(CCc2ccncc2)ccn1` [Complex 1, {[Ag(bpa)]NO3}n], the MIC against C. glabrata ATCC 2001 amounted to 6.25 µg/mL; in series [2], 3.1 µg/mL; in [3] it was 50 µg/mL; in series [4] it was 50 µg/mL; in [5] it was 50 µg/mL; in the series with C. albicans ATCC 10231, 6.25 µg/mL. The MIC with C. krusei ATCC 6258 is 6.25 µg/mL; in series [8], 50 µg/mL; in [9], 12.5^a μg/mL; in series [10], 12.5 µg/mL; in [11], 25 µg/mL. Moreover, the Hypochromism with calf thymus DNA (ctDNA) worked out at 11.3%. Also, the “interaction with C. albicans genomic DNA (emission of EthBr-DNA system on gel)” value in series [1] is “Slightly higher interaction”. For the same molecule, the “Tryptophan fluorescence quenching (emission decrease at 352 nm)” value in [6] amounted to 65.65%. Moreover, the “n (number of binding sites per albumin)” value in [6] was 1.14. In series [7], the “IC50 (cytotoxic effect on MRC-5 cells)” value is 40^b μg/mL. The “effect on C. albicans growth under filamentation conditions” value in [12] was “reduced the growth”. Besides, the “effect on C. albicans hyphae formation” value in [12] is “did not significantly affect the hyphae formation”.
As for `O.O=S(=O)([O-])C(F)(F)F.[Ag+].c1cc(CCc2ccncc2)ccn1.c1cc(CCc2ccncc2)ccn1` [Complex 2, {[Ag(bpa)2]CF3SO3^.H2O}n], the MIC is 12.5 µg/mL with C. glabrata ATCC 2001; 2.5 µg/mL in [2]; 50 µg/mL in [3]; 50 µg/mL in series [4]; 200 µg/mL in [5]; 6.25 µg/mL against C. albicans ATCC 10231. Moreover, the MIC amounted to 3.1 µg/mL in the series with C. krusei ATCC 6258; 200 µg/mL in series [8]; 12.5 µg/mL in series [9]; 25 µg/mL in series [10]; 12.5 µg/mL in series [11]. The Hypochromism with calf thymus DNA (ctDNA) is on record as 12.0%. The “interaction with C. albicans genomic DNA (emission of EthBr-DNA system on gel)” value in series [1] was “Slightly higher interaction”. In addition, in series [6], the “Tryptophan fluorescence quenching (emission decrease at 352 nm)” value is on record as 76.10%. Further, the “n (number of binding sites per albumin)” value in series [6] worked out at 1.10. In addition, the “IC50 (cytotoxic effect on MRC-5 cells)” value in [7] was found to be 30 µg/mL. Moreover, the “effect on C. albicans hyphae formation” value in [12] is “decreased number and length of hyphae”.
On to `C(=C\c1ccncc1)/c1ccncc1.O=S(=O)([O-])C(F)(F)F.[Ag+]` [Complex 3, {[Ag(bpe)]CF3SO3}n], for which the MIC against C. glabrata ATCC 2001 was 25 µg/mL; in series [2] it was 3.1 µg/mL; in series [3] it was 200 µg/mL; in series [4], 25 µg/mL; in series [5] it was 25 µg/mL; against C. albicans ATCC 10231, 25 µg/mL. Besides, the MIC with C. krusei ATCC 6258 came to 6.25 µg/mL; in series [8], 100 µg/mL; in series [9] it was 12.5 µg/mL; in [10], 25 µg/mL; in series [11], 250 µg/mL. The Hypochromism in the series on calf thymus DNA (ctDNA) is 3.8%. Further, the “K A” value in the series with calf thymus DNA (ctDNA) was determined as 59.16 M⁻¹. For the same molecule, in [6], the “Tryptophan fluorescence quenching (emission decrease at 352 nm)” value came to 81.13%. Moreover, in [6], the “n (number of binding sites per albumin)” value came out at 1.30. Further, the “IC50 (cytotoxic effect on MRC-5 cells)” value in series [7] was found to be 40 µg/mL. Moreover, in series [12], the “effect on C. albicans hyphae formation” value is reported as “did not significantly affect the hyphae formation”.
Turning to `O=C([O-])C(F)(F)F.[Ag+].c1cnc2ccc3ncccc3c2c1` [[Ag(CF3COO)(4,7-phen)]n], the “outcome of infected zebrafish” value in series [13] is given as “rescued the infected zebrafish of the lethal infection outcome”. The “effect on C. albicans filamentation” value with C. albicans is given as “totally prevented C. albicans filamentation”.
Turning to `O=[N+]([O-])[O-].[Ag+].c1cnc2ccc3ncccc3c2c1` [[Ag(NO3)(4,7-phen)]n], the “outcome of infected zebrafish” value in series [13] is given as “rescued the infected zebrafish of the lethal infection outcome”. In addition, the “effect on C. albicans filamentation” value in the series on C. albicans is reported as “totally prevented C. albicans filamentation”.
